A short description of data set [1]: Microsomal stability assay, mouse liver microsomes. The class given is in vitro ADME. The note with it: for Increase in half-life (MLM) relative to parent ligand: vs respective parent (8a, 8i, 8n or 8k). For orientation: Microsomes from liver hold many membrane-bound enzymes, among them those of drug oxidation.
Data set [2] is described as follows: Pharmacokinetic study, IP 10 mg/kg, plasma and brain. The class given is in vivo, rat. The note with it: rats.
A short description of data set [3]: Microsomal stability assay, human liver microsomes. The class given is in vitro ADME. The conditions noted are these: for Increase in half-life (HLM) relative to parent ligand: vs respective parent (8a, 8i, 8n or 8k).
The next data set concerns HEPG2 (liver) cells. Put plainly: Cytotoxicity assay. The class given is cell-based, human. The conditions noted are these: HEPG2, up to 400 μM, 48 hours.
The test system of another data set is HEK293 (kidney) cells. The experiment in a line: Cytotoxicity assay. The class given is cell-based, human. The note with it: HEK293, up to 400 μM, 48 hours.
In data set [4] the test system is BZP rat brain site of GABAARs. Put plainly: PDSP radioligand displacement, [3H]flunitrazepam. The note with it: [3H]flunitrazepam displacement. The class given is binding. (In general: Displacement assays read how much labelled ligand stays bound in the presence of the test substance.)
The target of the next data set is GABAAR α6β3γ2 subtype (Rattus norvegicus, UniProt P18508+P30191+P63079). Put plainly: Electrophysiological assay in Xenopus oocytes, modulation of GABA EC3 currents. The class given is cell-based.
Chain of GABAAR α6β3γ2 subtype (P30191 20-453): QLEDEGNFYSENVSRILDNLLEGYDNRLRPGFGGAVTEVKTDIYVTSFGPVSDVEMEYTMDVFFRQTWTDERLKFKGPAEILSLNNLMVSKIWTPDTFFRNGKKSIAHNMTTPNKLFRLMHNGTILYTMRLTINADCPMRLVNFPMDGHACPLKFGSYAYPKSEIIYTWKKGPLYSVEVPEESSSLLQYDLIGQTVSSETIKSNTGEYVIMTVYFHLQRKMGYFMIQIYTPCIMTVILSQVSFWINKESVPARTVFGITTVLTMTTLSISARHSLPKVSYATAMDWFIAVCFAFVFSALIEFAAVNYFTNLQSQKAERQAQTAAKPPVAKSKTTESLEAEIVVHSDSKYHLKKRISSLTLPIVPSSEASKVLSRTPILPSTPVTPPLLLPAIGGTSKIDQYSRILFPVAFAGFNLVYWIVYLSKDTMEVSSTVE
Chain of GABAAR α6β3γ2 subtype (P63079 26-473): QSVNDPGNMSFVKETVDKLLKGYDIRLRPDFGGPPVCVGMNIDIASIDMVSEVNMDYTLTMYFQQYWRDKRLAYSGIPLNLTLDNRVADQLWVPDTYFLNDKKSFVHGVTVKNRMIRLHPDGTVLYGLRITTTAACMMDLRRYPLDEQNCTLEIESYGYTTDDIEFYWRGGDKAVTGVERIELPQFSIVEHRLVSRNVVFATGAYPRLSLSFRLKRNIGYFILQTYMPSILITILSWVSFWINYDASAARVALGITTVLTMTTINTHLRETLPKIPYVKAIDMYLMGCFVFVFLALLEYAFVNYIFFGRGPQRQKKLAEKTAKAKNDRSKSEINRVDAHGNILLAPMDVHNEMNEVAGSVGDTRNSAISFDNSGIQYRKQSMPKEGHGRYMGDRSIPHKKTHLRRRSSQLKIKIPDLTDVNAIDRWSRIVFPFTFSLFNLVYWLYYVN
Chain of GABAAR α6β3γ2 subtype (P18508 39-466): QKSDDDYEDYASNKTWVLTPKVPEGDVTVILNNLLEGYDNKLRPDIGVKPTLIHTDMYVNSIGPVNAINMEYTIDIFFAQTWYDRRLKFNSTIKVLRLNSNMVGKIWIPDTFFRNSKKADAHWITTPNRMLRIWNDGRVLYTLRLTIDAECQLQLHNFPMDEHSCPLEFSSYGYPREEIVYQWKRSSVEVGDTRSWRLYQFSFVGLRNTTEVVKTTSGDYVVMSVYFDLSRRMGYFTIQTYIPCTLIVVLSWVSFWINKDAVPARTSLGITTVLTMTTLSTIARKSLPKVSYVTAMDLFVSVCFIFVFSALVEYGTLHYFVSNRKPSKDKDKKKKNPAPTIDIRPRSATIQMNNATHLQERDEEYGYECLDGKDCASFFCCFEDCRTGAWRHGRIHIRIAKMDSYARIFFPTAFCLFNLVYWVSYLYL
For the next data set, the system named is rats. The experiment in a line: Rotarod pilot experiment in rats. The class given is in vivo, rat. The note with it: IP doses as high as 60 mg/kg. A general note: The rotarod test checks motor coordination on a turning rod.
A short description of another data set: Solubility assay. The class given is physicochemical. The conditions noted are these: vs 8k, neutral and acidic aqueous media.

“Also recorded” adds a separate entry of the source.

Consider `[2H]C([2H])([2H])Oc1ccc2c3nn(-c4ccc(OC)cc4)c(=O)c-3c[nH]c2c1` [Compound 8c, 7-Methoxy-d3-2-(4-methoxyphenyl)-2,5-dihydro-3H-pyrazolo[4,3-c]quinolin-3-one], for which the “Increase in half-life (MLM) relative to parent ligand” value in data set [1] is “four-fold”. In addition, the “Brain concentration (Cmax) compared with parent 8a” value in data set [2] is given as “almost two-fold increase”. Moreover, the “Increase in half-life (HLM) relative to parent ligand” value in data set [3] is “three-fold”.

Consider `[2H]C([2H])([2H])Oc1ccc(-n2nc3c4ccc(OC([2H])([2H])[2H])cc4[nH]cc-3c2=O)cc1` [Compound 8d, 7-Methoxy-d3-2-(4-methoxy-d3-phenyl)-2,5-dihydro-3H-pyrazolo[4,3-c]quinolin-3-one], for which the “Brain concentration (Cmax) compared with parent 8a” value in data set [2] was “almost two-fold increase”.

For the molecule `[2H]C([2H])([2H])Oc1cccc(-n2nc3c4ccc(OC([2H])([2H])[2H])cc4[nH]cc-3c2=O)c1` [Compound 8e, 7-Methoxy-d3-2-(3-methoxy-d3-phenyl)-2,5-dihydro-3H-pyrazolo[4,3-c]quinolin-3-one], the “Cytotoxicity / cell viability” value with HEPG2 (liver) cells and in the data set on HEK293 (kidney) cells was “no impact on cytotoxicity” throughout.

In the case of `[2H]C([2H])([2H])Oc1ccc2c3nn(-c4ccccc4OC([2H])([2H])[2H])c(=O)c-3c[nH]c2c1` [Compound 8f, 7-Methoxy-d3-2-(2-methoxy-d3-phenyl)-2,5-dihydro-3H-pyrazolo[4,3-c]quinolin-3-one], the “Cytotoxicity / cell viability” value with HEPG2 (liver) cells and in the data set on HEK293 (kidney) cells was “no impact on cytotoxicity” throughout.

Turning to `[2H]C([2H])([2H])Oc1ccccc1-n1nc2c3ccc(OC)cc3[nH]cc-2c1=O` [Compound 8h, 7-Methoxy-2-(2-methoxy-d3-phenyl)-2,5-dihydro-3H-pyrazolo[4,3-c]quinolin-3-one], in data set [4], the “Binding to the BZP rat brain site (in words)” value (“Binding” for short) is “significantly less binding; also recorded: significantly reduced affinity”.

As to `[2H]C([2H])([2H])Oc1cccc(-n2nc3c4cc(Cl)ccc4[nH]cc-3c2=O)c1` [Compound 8j, 8-Chloro-2-(3-methoxy-d3-phenyl)-2,5-dihydro-3H-pyrazolo[4,3-c]quinolin-3-one], the “Cytotoxicity / cell viability” value in the data set with HEPG2 (liver) cells and in the data set with HEK293 (kidney) cells was “no impact on cytotoxicity” in each case. Also, the “Efficacy / activity at the α6β3γ2 subtype (in words)” value (from here on “Efficacy / activity”) at GABAAR α6β3γ2 subtype is “poorer efficacy”. The “Increase in half-life (MLM) relative to parent ligand” value in data set [1] is reported as “two-fold”. Besides, the “Increase in half-life (HLM) relative to parent ligand” value in [3] is “three-fold”.

`[2H]C([2H])([2H])Oc1ccccc1-n1nc2c3cc(Cl)ccc3[nH]cc-2c1=O` [Compound 8m, 8-Chloro-2-(2-methoxy-d3-phenyl)-2,5-dihydro-3H-pyrazolo[4,3-c]quinolin-3-one]: the “Cytotoxicity / cell viability” value with HEPG2 (liver) cells and with HEK293 (kidney) cells was “no impact on cytotoxicity” each time. For the same molecule, the “Binding” value in data set [4] is listed as “reasonable binding affinity”. For the same molecule, the “Efficacy / activity” value on GABAAR α6β3γ2 subtype was “completely inactive; also recorded: no activity; also recorded: almost no efficacy”. For the same molecule, the “Motor coordination and balance on the rotarod” value in the data set on rats is “retained”.

Consider `[2H]C([2H])([2H])Oc1ccc(-n2nc3c4ccc(Br)cc4[nH]cc-3c2=O)cc1` [Compound 8o, 7-Bromo-2-(4-methoxy-d3-phenyl)-2,5-dihydro-3H-pyrazolo[4,3-c]quinolin-3-one], for which the “Efficacy / activity” value on GABAAR α6β3γ2 subtype was “efficacies comparable to 8n”. The “Increase in MLM-mediated half-life” value in data set [1] (vs parent 8n) is 20%. For the same molecule, in data set [3], the “Increase in half-life (HLM) relative to parent ligand” value is on record as “two-fold”.

On to `[2H]C([2H])([2H])Oc1ccccc1-n1nc2c3ccc(Br)cc3[nH]cc-2c1=O` [Compound 8q, 7-Bromo-2-(2-methoxy-d3-phenyl)-2,5-dihydro-3H-pyrazolo[4,3-c]quinolin-3-one], for which, in data set [4], the “Binding” value is “significantly less binding; also recorded: significantly reduced affinity”.

Take `[2H]C([2H])([2H])Oc1ccc(-n2nc3c4ccc(OC)cc4[nH]cc-3c2=O)cn1` [Compound 13b, 7-Methoxy-2-(6-methoxy-d3-pyridin-3-yl)-2,5-dihydro-3H-pyrazolo[4,3-c]quinolin-3-one]: the “Efficacy / activity” value at GABAAR α6β3γ2 subtype is on record as “retained some efficacy”.

Regarding `COc1ccc(-n2nc3c4cc(Cl)ccc4[nH]cc-3c2=O)cn1` [Compound 13e, 8-Chloro-2-(6-methoxypyridin-3-yl)-2,5-dihydro-3H-pyrazolo[4,3-c]quinolin-3-one], the “Cytotoxicity / cell viability” value in the data set on HEPG2 (liver) cells and with HEK293 (kidney) cells was “no impact of cell viability” throughout. In data set [1], the “Increase in half-life (MLM) relative to parent ligand” value was “two-fold”. Moreover, the “Decrease in water solubility” value in the data set “Solubility assay” was around 10 fold. Besides, the “Increase in half-life (HLM) relative to parent ligand” value in data set [3] is on record as “nearly four-fold”.

Regarding `[2H]C([2H])([2H])Oc1ccc(-n2nc3c4cc(Cl)ccc4[nH]cc-3c2=O)cn1` [Compound 13f, 8-Chloro-2-(6-methoxy-d3-pyridin-3-yl)-2,5-dihydro-3H-pyrazolo[4,3-c]quinolin-3-one], the “Efficacy / activity” value at GABAAR α6β3γ2 subtype is recorded as “much poorer efficacy”. The “Increased half-life (HLM)” value in data set [3] (vs OCH3 N-hetero ligand 13e) is on record as 40%.

As to `COc1ccc(-n2nc3c4ccc(Br)cc4[nH]cc-3c2=O)cn1` [Compound 13g, 7-Bromo-2-(6-methoxypyridin-3-yl)-2,5-dihydro-3H-pyrazolo[4,3-c]quinolin-3-one], the “Cytotoxicity / cell viability” value with HEPG2 (liver) cells and with HEK293 (kidney) cells was “no impact of cell viability” throughout. Also, the “Increase in half-life (MLM) relative to parent ligand” value in data set [1] is reported as “seven-fold”. The “Increase in half-life (HLM) relative to parent ligand” value in data set [3] was “seven-fold”.

As to `[2H]C([2H])([2H])Oc1ccc(-n2nc3c4ccc(Br)cc4[nH]cc-3c2=O)cn1` [Compound 13h, 7-Bromo-2-(6-methoxy-d3-pyridin-3-yl)-2,5-dihydro-3H-pyrazolo[4,3-c]quinolin-3-one], the “Efficacy / activity” value at GABAAR α6β3γ2 subtype is reported as “retained some efficacy; also recorded: efficacies comparable to 8n”. In data set [1] (vs 8o), the “Increase in stability in MLM” value was found to be 30 fold. Also, the “Increased stability (MLM half-life)” value in data set [1] (vs OCH3 N-hetero ligand 13g) is reported as “six-fold”. For the same molecule, the “Increase in metabolic stability in HLM” value in data set [3] (vs 8o) was determined as 11 fold. Moreover, in data set [3] (vs OCH3 N-hetero ligand 13g), the “Increased stability (HLM half-life)” value is “three-fold”.

For the molecule `COc1ccc(-n2nc3c4cnc(OC)cc4[nH]cc-3c2=O)cc1` [Compound 13i, 7-Methoxy-2-(4-methoxyphenyl)-2,5-dihydro-3H-pyrazolo[4,3-c][1,6]naphthyridin-3-one], the “Efficacy / activity” value at GABAAR α6β3γ2 subtype was “retained some efficacy”.

(Values after publication PMC6941172 (Journal of medicinal chemistry, 2018).)
